Patent US9988600B2, “Cell culture media” (MERCK PATENT GMBH, priority 2013, dated 2018)
Structures can show the parent of a compound that is named as a salt.

Test: Effect of polymer embedding on components of DMEM F12 medium (embedded vs non-embedded form);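 note: qualitative label per medium component: Hygros denotes lower hygroscopicity of the embedded form versus the free form, NA denotes not applicable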
Format: physicochemical
Conditions: component of DMEM F12 medium embedded in polymer, compared to the non-embedded form
Excerpt: For all components the effect of polymer embedding is shown.
In Table 1, “Hygros” means that if the component is embedded according to the present invention and used in the media composition in its embedded form, the ability of said substance to attract and hold water molecules from the surrounding environment is reduced compared to the non-embedded form.

Row | embedding effect | Molecule
1 | Solu | CSCC[C@H](N)C(=O)O [L-Methionine]
2 | Solu | CC[C@H](C)[C@H](N)C(=O)O [L-Isoleucine]
3 | Solu | CC(C)C[C@H](N)C(=O)O [L-Leucine]
4 | Stab | Cc1cc2nc3c(=O)[nH]c(=O)nc-3n(C[C@H](O)[C@H](O)[C@H](O)CO)c2cc1C [Riboflavin]
5 | Oxid | CCCCC/C=C\C/C=C\CCCCCCCC(=O)O [Linoleic acid]
6 | Solu | C[C@@H](O)[C@H](N)C(=O)O [L-Threonine]
7 | Stab | NC(=O)CC[C@H](N)C(=O)O [L-Glutamine]
8 | Solu | N[C@@H](CO)C(=O)O [L-Serine]
9 | Solu | Cl.N[C@@H](Cc1cnc[nH]1)C(=O)O.O [L-Histidine HCl H2O]
10 | Solu | N[C@@H](Cc1c[nH]c2ccccc12)C(=O)O [L-Thryptophan]
11 | Solu | CC(C)[C@H](N)C(=O)O [L-Valine]
12 | Stab | Cc1ncc(C[n+]2csc(CCO)c2C)c(N)n1 [Thiamine HCl]
13 | Stab | NC(=O)c1cccnc1 [Niacinamide]
14 | Solu | O.O.O.O.O.O.O.O=S(=O)([O-])[O-].[Zn+2] [Zinc sulafte 7H2O]
15 | Solu | N[C@@H](Cc1ccccc1)C(=O)O [L-Phenylalanine]
16 | Solu | Vitamin B12
17 | Stab | CC(=O)C(=O)[O-].[Na+] [Sodium pyruvate]

Second part, the molecule before the results:

Row | Molecule | embedding effect
18 | O.O.O.O.O.O.O.O.O.O=[N+]([O-])[O-].O=[N+]([O-])[O-].O=[N+]([O-])[O-].[Fe+3] [Ferric nitrate 9H2O] | Solu
19 | Nc1nc2ncc(CNc3ccc(C(=O)N[C@@H](CCC(=O)O)C(=O)O)cc3)nc2c(=O)[nH]1 [Folic acid] | Stab
20 | C[N+](C)(C)CCO.[Cl-] [Choline chloride] | Hygros
21 | Cc1ncc(CO)c(CO)c1O.Cl [Pyridoxine HCl] | Stab
22 | N[C@@H](Cc1ccc([O-])cc1)C(=O)[O-].O.O.[Na+].[Na+] [L-Tyrosine 2Na] | Solu
23 | O.O.O.O.O.O.O.O=S(=O)([O-])[O-].[Fe+2] [Ferrous sulfate 7H2O] | Solu
24 | O.O.O.O.O.O=S(=O)([O-])[O-].[Cu+2] [Copper sulfate 5H2O] | Solu
25 | Cl.N[C@@H](CS)C(=O)O.O [L-Cysteine hydrochloride H2O] | Solu
26 | Cl.NCCCC[C@H](N)C(=O)O [L-Lysine hydrochloride] | Solu
27 | Cl.Cl.NCCCCN [Putrescine 2HCl] | Stab
28 | NC(=O)C[C@H](N)C(=O)O.O [L-Asparagine H2O] | Solu
29 | Cl.Cl.N[C@@H](CSSC[C@H](N)C(=O)O)C(=O)O [L-Cystine 2HCl (mikronisiert), L-Cystine 2HCl (mikronisiert) aus 200635] | Solu
30 | C[C@H](N)C(=O)O [L-Alanine] | Solu
31 | O=C(O)CCCC[C@@H]1SC[C@@H]2NC(=O)N[C@@H]21 [Biotin] | Stab
32 | O=C(O)CCCCC1CCSS1 (racemic) [DL-alpha-lipoic acid] | Oxid
